One data set deals with CYP2D6 (Homo sapiens, UniProt P10635). Kind of data set: CYP inhibition. Format: in vitro ADME. On the procedure:
Table 6 In vitro liver metabolic stability and activity against CYPs of potent analogues. | column: CYP % Activity at 10 μM / 2D6

In the next data set the target is CYP2C9 (Homo sapiens, UniProt P11712). Kind of data set: CYP inhibition. Type of data set: in vitro ADME. On the procedure:
Table 6 In vitro liver metabolic stability and activity against CYPs of potent analogues. | column: CYP % Activity at 10 μM / 2C9

The next data set addresses CYP3A4 (Homo sapiens, UniProt P08684). Kind of data set: CYP inhibition. Type of data set: in vitro ADME. On the procedure:
Table 6 In vitro liver metabolic stability and activity against CYPs of potent analogues. | column: CYP % Activity at 10 μM / 3A4

A further data set addresses CDK12/CyclinK (Homo sapiens, UniProt Q9NYV4). Kind of data set: In vitro CDK12/cyclinK kinase assay. Set-up: purchased Reaction Biology Corp. (CRO that ran the assay). Type of data set: biochemical. On the procedure:
In vitro CDK12/cyclinK assays for all compounds and in vitro kinome-wide inhibition profiling of 30d at 10 μM were performed by a CRO company (Reaction Biology Corp., San Diego, CA, USA).

The next data set has as its target CYP2C19 (Homo sapiens, UniProt P33261). Kind of data set: CYP inhibition. Format: in vitro ADME. On the procedure:
Table 6 In vitro liver metabolic stability and activity against CYPs of potent analogues. | column: CYP % Activity at 10 μM / 2C19

A short description of data set [1]: In vitro liver microsomal stability. Format: in vitro ADME. The conditions noted are these: liver microsomes, pH 7.4, 30 m at 37 °C with NADPH regeneration system. On the procedure:
Each compound (final 1 μM, duplicated) was added to each 0.1 M PBS solution (pH 7.4) containing liver microsome of three different species (human, dog, mouse). After a brief (5 m) incubation at 37 °C, the NADPH regeneration system (Promega Corp., Madison, WI, USA) was added, then the mixture was incubated at 37 °C for 30 m. The reaction was terminated by adding acetonitrile containing an internal standard (chlorpropamide), then the mixture was centrifuged at 15,000 rpm, 4 °C for 5 m. The supernatant solution was injected to LC/MS/MS system (TSQ Vantage Triple-Stage Quadrupole Mass Spectrometer, ThermoFisher Scientific, Waltham, MA, USA). The remaining substrates were analyzed with Xcalibur 4.4 s/w using an MRM (multiple reaction monitoring) quantitation mode.

The target in another data set is T1, CYP1A2 (Homo sapiens, UniProt P05177).
T1 sequence (P05177 1-516): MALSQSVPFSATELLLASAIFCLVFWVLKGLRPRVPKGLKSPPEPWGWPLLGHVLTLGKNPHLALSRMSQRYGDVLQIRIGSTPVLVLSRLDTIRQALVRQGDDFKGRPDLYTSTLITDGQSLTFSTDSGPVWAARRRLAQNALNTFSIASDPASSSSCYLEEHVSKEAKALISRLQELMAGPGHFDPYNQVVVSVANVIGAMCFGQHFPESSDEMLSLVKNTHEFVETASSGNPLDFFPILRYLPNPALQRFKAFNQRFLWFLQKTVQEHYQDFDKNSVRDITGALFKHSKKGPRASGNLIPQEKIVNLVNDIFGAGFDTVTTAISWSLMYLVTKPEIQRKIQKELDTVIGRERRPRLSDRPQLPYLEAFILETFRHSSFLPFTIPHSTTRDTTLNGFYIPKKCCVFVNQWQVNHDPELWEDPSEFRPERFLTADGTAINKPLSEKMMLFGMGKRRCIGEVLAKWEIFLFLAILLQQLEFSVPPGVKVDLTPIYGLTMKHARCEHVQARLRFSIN
Kind of data set: CYP inhibition. Format: in vitro ADME. On the procedure:
Table 6 In vitro liver metabolic stability and activity against CYPs of potent analogues. | column: CYP % Activity at 10 μM / 1A2

The test system of a further data set is SK-Br3 cells. Kind of data set: Antiproliferation assay (Cell-titer Glo, 72 h). Format: cell-based. As to conditions: Homo sapiens, SK-BR-3; 72 h; means and standard deviations from three independent assays; read-out: SK-Br3 (GI50/μM). On the procedure: (§1) Breast-cancer cell lines (SK-Br3, HCC-1954) were purchased from Korea Cell Line Bank (Seoul, Korea) and were cultured in RPMI medium supplemented with 10% FBS and penicillin/streptomycin (Welgene, Seoul, Korea). All cell lines were maintained at 37 °C in a cell incubator in the presence of 5% CO2.
(§2) Breast-cancer cells in culture media (100 μL volume/well, 5000 SK-Br3 cells/well, 1000 HCC-1954 cells/well) were seeded in tissue culture-treated 96-well plates, and incubated at a cell incubator for 24 h. Serially diluted compounds (3-fold, 10 point from 10 mM, duplicated) were pre-plated and 500 nL of compound solutions were pin-transferred to the cells in the assay plates using pintool system (JANUS liquid handler, PerkinElmer, Waltham, MA, USA) and incubated at a cell incubator for 72 h. Cell-titer Glo^TM reagent (50 μL, Promega Corp., Madison, WI, USA) was added to each well, and the luminescence signal was read using an Envision^TM plate reader (PerkinElmer, Waltham, MA, USA). The titration curve fitting and IC50 values were generated using Prism 7.0 s/w (GraphPad, San Diego, CA, USA).

In the next data set the test system is HCC1954 cells. Kind of data set: Antiproliferation assay (Cell-titer Glo, 72 h). Format: cell-based. As to conditions: Homo sapiens, 72 h, means and standard deviations from three independent assays, read-out: HCC1954 (GI50/μM). On the procedure: as §1, §2
Where [2] appears, read: Table 5, means and standard deviations from three independent assays, read-out: CDK12/CyclinK (IC50/μM).

Experimental findings from article PMC9506414, “Novel 2,6,9-Trisubstituted Purines as Potent CDK Inhibitors Alleviating Trastuzumab-Resistance of HER2-Positive Breast Cancers” (Pharmaceuticals, 2022) are described below.

Where two headings read alike, the source gives them in different places.

CYP3A4, sequence (P08684 whole entry): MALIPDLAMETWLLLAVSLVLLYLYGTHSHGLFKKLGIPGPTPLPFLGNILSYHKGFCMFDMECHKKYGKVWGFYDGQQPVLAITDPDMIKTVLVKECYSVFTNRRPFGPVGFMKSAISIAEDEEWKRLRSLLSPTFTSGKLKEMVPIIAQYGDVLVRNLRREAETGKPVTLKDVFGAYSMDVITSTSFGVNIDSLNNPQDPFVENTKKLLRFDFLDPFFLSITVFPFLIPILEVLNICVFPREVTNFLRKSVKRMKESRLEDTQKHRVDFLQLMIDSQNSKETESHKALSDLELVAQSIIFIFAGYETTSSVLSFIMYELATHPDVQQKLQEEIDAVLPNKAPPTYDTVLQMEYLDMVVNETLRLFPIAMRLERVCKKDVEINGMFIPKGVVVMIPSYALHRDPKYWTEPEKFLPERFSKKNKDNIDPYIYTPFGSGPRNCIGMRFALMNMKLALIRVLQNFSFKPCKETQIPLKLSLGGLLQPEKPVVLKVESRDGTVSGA
CYP2C19, sequence (P33261 whole entry): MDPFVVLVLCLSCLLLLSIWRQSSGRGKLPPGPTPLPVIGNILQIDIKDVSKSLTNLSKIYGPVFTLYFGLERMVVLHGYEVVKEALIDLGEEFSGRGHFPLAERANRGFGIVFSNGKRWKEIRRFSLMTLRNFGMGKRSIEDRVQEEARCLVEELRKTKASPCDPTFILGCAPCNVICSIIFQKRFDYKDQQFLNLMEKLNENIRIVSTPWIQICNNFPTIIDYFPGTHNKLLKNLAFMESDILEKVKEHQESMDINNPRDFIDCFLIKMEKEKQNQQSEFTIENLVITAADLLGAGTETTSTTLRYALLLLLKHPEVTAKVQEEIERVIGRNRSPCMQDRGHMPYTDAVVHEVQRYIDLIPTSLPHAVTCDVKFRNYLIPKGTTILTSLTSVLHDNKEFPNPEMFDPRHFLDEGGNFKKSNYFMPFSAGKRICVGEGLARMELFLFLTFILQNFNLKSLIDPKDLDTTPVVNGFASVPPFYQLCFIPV
CDK12/CyclinK, sequence (Q9NYV4 whole entry): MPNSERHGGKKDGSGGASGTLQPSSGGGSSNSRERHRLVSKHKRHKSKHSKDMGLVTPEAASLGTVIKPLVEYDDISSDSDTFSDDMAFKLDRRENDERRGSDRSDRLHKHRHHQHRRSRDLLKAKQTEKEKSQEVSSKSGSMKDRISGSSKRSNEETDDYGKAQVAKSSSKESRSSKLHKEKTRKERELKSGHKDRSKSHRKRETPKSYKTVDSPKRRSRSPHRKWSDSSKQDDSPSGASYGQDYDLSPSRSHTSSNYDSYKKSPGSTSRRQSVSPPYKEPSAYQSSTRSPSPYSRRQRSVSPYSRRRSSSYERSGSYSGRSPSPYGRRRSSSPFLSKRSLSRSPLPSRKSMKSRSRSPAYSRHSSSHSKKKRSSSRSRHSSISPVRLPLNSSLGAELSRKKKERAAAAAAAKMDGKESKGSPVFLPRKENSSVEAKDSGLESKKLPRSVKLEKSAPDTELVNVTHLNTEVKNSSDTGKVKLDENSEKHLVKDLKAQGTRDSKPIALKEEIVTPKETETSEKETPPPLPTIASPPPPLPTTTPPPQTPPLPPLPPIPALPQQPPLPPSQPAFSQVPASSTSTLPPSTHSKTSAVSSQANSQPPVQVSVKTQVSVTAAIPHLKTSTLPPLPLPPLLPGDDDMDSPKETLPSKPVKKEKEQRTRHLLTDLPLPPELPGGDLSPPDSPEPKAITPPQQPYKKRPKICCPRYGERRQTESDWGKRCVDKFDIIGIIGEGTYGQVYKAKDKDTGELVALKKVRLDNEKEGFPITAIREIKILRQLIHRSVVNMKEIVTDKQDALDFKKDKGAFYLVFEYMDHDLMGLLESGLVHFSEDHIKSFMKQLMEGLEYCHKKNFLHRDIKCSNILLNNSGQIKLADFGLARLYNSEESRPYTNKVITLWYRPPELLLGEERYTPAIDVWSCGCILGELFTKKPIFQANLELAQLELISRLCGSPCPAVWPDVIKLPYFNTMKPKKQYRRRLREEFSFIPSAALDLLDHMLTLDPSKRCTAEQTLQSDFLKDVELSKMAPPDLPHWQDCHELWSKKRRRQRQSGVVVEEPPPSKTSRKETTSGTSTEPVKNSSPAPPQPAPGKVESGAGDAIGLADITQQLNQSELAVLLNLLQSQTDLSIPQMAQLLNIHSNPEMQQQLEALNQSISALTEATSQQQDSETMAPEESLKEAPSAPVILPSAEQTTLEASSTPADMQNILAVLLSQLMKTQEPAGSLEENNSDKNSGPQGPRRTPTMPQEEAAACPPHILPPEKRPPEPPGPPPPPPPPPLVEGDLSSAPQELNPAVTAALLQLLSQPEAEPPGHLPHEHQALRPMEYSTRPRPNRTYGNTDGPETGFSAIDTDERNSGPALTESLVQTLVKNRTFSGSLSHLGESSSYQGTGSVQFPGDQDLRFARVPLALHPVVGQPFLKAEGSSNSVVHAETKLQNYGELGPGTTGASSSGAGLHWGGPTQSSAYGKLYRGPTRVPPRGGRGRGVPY
CDK12/CyclinK, sequence (O75909 whole entry partner): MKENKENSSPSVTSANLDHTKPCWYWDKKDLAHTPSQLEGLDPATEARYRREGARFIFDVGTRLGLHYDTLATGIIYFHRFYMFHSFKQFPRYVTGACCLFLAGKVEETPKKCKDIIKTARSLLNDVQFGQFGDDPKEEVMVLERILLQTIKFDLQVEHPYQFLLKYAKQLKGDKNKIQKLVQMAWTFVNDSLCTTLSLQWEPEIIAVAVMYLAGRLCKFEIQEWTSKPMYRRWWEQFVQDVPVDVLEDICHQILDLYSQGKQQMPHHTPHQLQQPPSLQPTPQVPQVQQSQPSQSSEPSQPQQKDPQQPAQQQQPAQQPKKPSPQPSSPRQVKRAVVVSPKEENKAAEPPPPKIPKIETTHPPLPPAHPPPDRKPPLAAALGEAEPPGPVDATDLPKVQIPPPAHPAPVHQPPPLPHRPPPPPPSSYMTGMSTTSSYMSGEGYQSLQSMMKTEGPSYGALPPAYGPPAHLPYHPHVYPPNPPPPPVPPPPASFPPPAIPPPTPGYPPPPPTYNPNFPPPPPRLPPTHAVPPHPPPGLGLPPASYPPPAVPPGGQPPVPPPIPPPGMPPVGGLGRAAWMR
CYP2D6, sequence (P10635 whole entry): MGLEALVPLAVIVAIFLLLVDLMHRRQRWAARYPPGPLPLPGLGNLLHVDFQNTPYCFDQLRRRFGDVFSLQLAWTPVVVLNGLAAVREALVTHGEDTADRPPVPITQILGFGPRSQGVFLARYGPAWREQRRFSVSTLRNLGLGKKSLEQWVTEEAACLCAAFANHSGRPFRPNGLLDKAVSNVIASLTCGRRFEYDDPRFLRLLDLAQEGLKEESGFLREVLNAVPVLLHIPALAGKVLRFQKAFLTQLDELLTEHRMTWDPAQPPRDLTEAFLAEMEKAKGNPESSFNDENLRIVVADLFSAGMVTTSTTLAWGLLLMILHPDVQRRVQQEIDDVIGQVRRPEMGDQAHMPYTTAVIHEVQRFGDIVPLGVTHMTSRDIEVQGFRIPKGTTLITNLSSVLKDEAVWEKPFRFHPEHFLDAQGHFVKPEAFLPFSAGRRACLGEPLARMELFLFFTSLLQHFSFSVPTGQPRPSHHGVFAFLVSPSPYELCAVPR
CYP2C9, sequence (P11712 whole entry): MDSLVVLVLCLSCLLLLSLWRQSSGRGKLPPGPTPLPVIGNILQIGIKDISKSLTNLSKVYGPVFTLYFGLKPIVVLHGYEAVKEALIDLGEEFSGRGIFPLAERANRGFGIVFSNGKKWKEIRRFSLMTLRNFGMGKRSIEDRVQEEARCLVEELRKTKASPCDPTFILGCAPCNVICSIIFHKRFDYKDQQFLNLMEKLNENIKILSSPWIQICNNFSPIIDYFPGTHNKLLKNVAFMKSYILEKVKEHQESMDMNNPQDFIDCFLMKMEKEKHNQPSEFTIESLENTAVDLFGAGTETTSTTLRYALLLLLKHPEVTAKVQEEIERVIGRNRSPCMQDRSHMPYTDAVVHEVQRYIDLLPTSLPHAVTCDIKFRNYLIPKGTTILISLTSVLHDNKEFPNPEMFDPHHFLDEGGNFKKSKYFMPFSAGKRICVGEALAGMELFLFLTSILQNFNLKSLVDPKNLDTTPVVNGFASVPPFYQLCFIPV

Regarding `CCn1cnc2c(NCc3ccc(-c4ccnc(C)c4)nc3)nc(-c3ccc(N)nc3)nc21` [Compound 30a, 2-(6-Aminopyridin-3-yl)-9-ethyl-N-((2′-methyl-[2,4′-bipyridin]-5-yl)methyl)-9H-purin-6-amine], the “CYP % Activity at 10 μM 2D6” value at CYP2D6 is 89.6%. In addition, the “CYP % Activity at 10 μM 2C9” value at CYP2C9 is 73.0%. The “CYP % Activity at 10 μM 3A4” value at CYP3A4 was 38.9%. Also, the figures for the IC50 on CDK12/CyclinK (setting [2]) and at CDK12/CyclinK (read-out: CDK12/cyclinK IC50) were 0.029 ± 0.015 µM and less than 0.03 µM, respectively. Further, the “CYP % Activity at 10 μM 2C19” value at CYP2C19 is reported as 76.8%. In addition, the amount remaining (usually the share of the starting amount still present when the sample was taken) at 30 min, 1 μM in data set [1] (dog) came out at 45.1%; in [1] (human), 32.2%; in [1] (mouse), 35.3%. Moreover, the “CYP % Activity at 10 μM 1A2” value on CYP1A2 stood at 59.3%. The GI50 was determined as 0.136 ± 0.016 µM in the data set with SK-Br3 cells and 0.104 ± 0.003 µM in the data set with HCC1954 cells.

As for `CCn1cnc2c(NCc3ccc(-c4ccnc(C)c4)nc3)nc(-c3cncnc3)nc21` [Compound 30c, 9-Ethyl-N-((2′-methyl-[2,4′-bipyridin]-5-yl)methyl)-2-(pyrimidin-5-yl)-9H-purin-6-amine], the “CYP % Activity at 10 μM 2D6” value at CYP2D6 is recorded as 88.8%. At CYP2C9, the “CYP % Activity at 10 μM 2C9” value amounted to 67.5%. In addition, the “CYP % Activity at 10 μM 3A4” value on CYP3A4 is reported as 31.8%. In addition, the IC50 at CDK12/CyclinK (setting [2]) came out at 0.064 ± 0.012 µM. Also, the “CYP % Activity at 10 μM 2C19” value on CYP2C19 came out at 73.9%. In addition, the share remaining at 30 min, 1 μM in data set [1] (dog) was found to be 79.5%; in [1] (human), 27.3%; in data set [1] (mouse) it was 34%. Further, the “CYP % Activity at 10 μM 1A2” value at CYP1A2 is given as 68.6%. The GI50 with SK-Br3 cells stood at 0.189 ± 0.057 µM; in the data set with HCC1954 cells, 0.157 ± 0.022 µM.

For the molecule `CCn1cnc2c(NCc3ccc(-c4ccnc(C)c4)nc3)nc(-c3cnc(N)nc3)nc21` [Compound 30b, 2-(2-Aminopyrimidin-5-yl)-9-ethyl-N-((2′-methyl-[2,4′-bipyridin]-5-yl)methyl)-9H-purin-6-amine], at CYP2D6, the “CYP % Activity at 10 μM 2D6” value came to 85.7%. The “CYP % Activity at 10 μM 2C9” value at CYP2C9 is on record as 82.9%. Besides, the “CYP % Activity at 10 μM 3A4” value on CYP3A4 turned out to be 72.4%. For the same molecule, the IC50 was 0.028 ± 0.008 µM at CDK12/CyclinK (setting [2]) and less than 0.03 µM at CDK12/CyclinK (read-out: CDK12/cyclinK IC50). At CYP2C19, the “CYP % Activity at 10 μM 2C19” value turned out to be 75.4%. The amount remaining at 30 min, 1 μM in data set [1] (dog) was determined as 53.6%; in data set [1] (human), 40.6%; in [1] (mouse), 45%. The “CYP % Activity at 10 μM 1A2” value at CYP1A2 amounted to 74.9%. The GI50 turned out to be 0.09 ± 0.008 µM in the data set with SK-Br3 cells and 0.08 ± 0.007 µM in the data set with HCC1954 cells.
